{"source": "paper PMC7525662", "about": "“Preclinical dosimetry models and the prediction of clinical doses of novel positron emission tomography radiotracers” (Scientific Reports, 2020)", "design_in_all_cases": "species or system Sprague–Dawley rats", "settings_in_all_cases": "rat, in vivo", "key": {"[1]": {"assay": "Comparison of predicted doses across the eight dosimetry models and radiotracers", "experimental": "Time-activity curves for each source organ, whole-body and remainder of the body were plotted. […] Residence times (τ) were determined for each radiotracer in source organs, whole-body and remaining (any activity assigned to the whole-body but not assigned to a source organ). Each preclinical source organ’s τ was determined by calculating the area under its respective time-activity curve (activity normalised to the percentage maximum injected dose as a function of time) using the trapezoid method. […] From each individual animal, eight dosimetry models were constructed from all possible combinations of image reconstruction method (FBP or iterative), τ (non-normalised or normalised to human organ masses), and sex of phantom (male or female). All graphs and statistical analyses were generated and performed in GraphPad Prism 5.01 (GraphPad Software Inc., California, USA). One-way ANOVA followed by a Dunnett’s multiple comparison post-hoc test with [^18F]FDG as the control was used to determine which novel radiotracers’ biodistribution and dosimetry differed from [^18F]FDG in the same organs. All statistical tests used α = 0.05 as the measure for statistical significance. Bland–Altman plots were calculated as previously described[33],[34]."}, "[2]": {"assay": "Residence times normalised to human organ masses, iterative reconstruction", "experimental": "PET studies were reconstructed using filtered-back projection (FBP) and Mediso’s iterative Tera-Tomo 3D reconstruction algorithm with the following settings: 4 iterations, 6 subsets, full detector model, normal regularization, spike filter on, voxel size 0.4 mm and 400‒600 keV energy window. PET data were corrected for randoms, scatter and attenuation. Time-activity curves for each source organ, whole-body and remainder of the body were plotted. […] Residence times (τ) were determined for each radiotracer in source organs, whole-body and remaining (any activity assigned to the whole-body but not assigned to a source organ). Each preclinical source organ’s τ was determined by calculating the area under its respective time-activity curve (activity normalised to the percentage maximum injected dose as a function of time) using the trapezoid method. […] From each individual animal, eight dosimetry models were constructed from all possible combinations of image reconstruction method (FBP or iterative), τ (non-normalised or normalised to human organ masses), and sex of phantom (male or female). Supplementary table 1. Scaling (normalisation) factors applied to residence times of PET radiotracers in male Sprague-Dawley rats to predict human adult residence times. […] Stabin et al. 2006 ^4); WB: Whole Body."}, "[3]": {"assay": "OLINDA/EXM predicted clinical doses: adult female phantom, non-normalised τ, FBP", "experimental": "(§1) PET studies were reconstructed using filtered-back projection (FBP) and Mediso’s iterative Tera-Tomo 3D reconstruction algorithm with the following settings: 4 iterations, 6 subsets, full detector model, normal regularization, spike filter on, voxel size 0.4 mm and 400‒600 keV energy window. PET data were corrected for randoms, scatter and attenuation. Time-activity curves for each source organ, whole-body and remainder of the body were plotted. […] Residence times (τ) were determined for each radiotracer in source organs, whole-body and remaining (any activity assigned to the whole-body but not assigned to a source organ). Each preclinical source organ’s τ was determined by calculating the area under its respective time-activity curve (activity normalised to the percentage maximum injected dose as a function of time) using the trapezoid method. […] From each individual animal, eight dosimetry models were constructed from all possible combinations of image reconstruction method (FBP or iterative), τ (non-normalised or normalised to human organ masses), and sex of phantom (male or female). Supplementary table 6. Predicted clinical absorbed organ doses and whole-body effective doses of PET radiotracers using non-normalised (preclinical) adult female source organ residence times from filtered backprojection reconstructions."}, "[4]": {"assay": "OLINDA/EXM predicted clinical doses: adult female phantom, normalised τ, iterative", "experimental": "as §1, with “12.” for “6.”, “normalised” for “non-normalised (preclinical)”, “iterative” for “filtered backprojection”"}}, "note": "Marks after values point to notes of the source that are not given here."}
{"smiles": "O=C[C@H]([18F])[C@@H](O)[C@H](O)[C@H](O)CO", "note": "[FDG, 2-deoxy-2-[^18F]fluoro-D-glucose]", "values": [{"measurement": "organs predicted to receive the highest absorbed doses (ranking)", "setting": "[1]", "result": "the urinary bladder, followed by the lower large intestinal (LLI) wall and kidneys"}, {"measurement": "Normalised Residence Time (h), Average: Remaining", "setting": "[2]", "result": 1.36, "unit": "h"}, {"measurement": "Effective Dose (mSv/MBq), Average ± SD", "setting": "[3]", "result": "7.08E-02", "unit": "mSv/MBq"}, {"measurement": "Estimated Absorbed Dose of Organ, Average: Adrenals", "setting": "[3]", "result": "1.56E-02", "unit": "mGy/MBq"}, {"measurement": "Estimated Absorbed Dose of Organ, Average: Brain", "setting": "[3]", "result": "5.39E-03", "unit": "mGy/MBq"}, {"measurement": "Estimated Absorbed Dose of Organ, Average: Breasts", "setting": "[3]", "result": "1.10E-02", "unit": "mGy/MBq"}, {"measurement": "Estimated Absorbed Dose of Organ, Average: Gallbladder Wall", "setting": "[3]", "result": "1.59E-02", "unit": "mGy/MBq"}, {"measurement": "Estimated Absorbed Dose of Organ, Average: Heart Wall", "setting": "[3]", "result": "1.95E-02", "unit": "mGy/MBq"}, {"measurement": "Estimated Absorbed Dose of Organ, Average: Kidneys", "setting": "[3]", "result": "2.28E-02 § mGy/MBq"}, {"measurement": "Estimated Absorbed Dose of Organ, Average: LLI Wall", "setting": "[3]", "result": "2.63E-01 † mGy/MBq"}, {"measurement": "Estimated Absorbed Dose of Organ, Average: Liver", "setting": "[3]", "result": "1.05E-02", "unit": "mGy/MBq"}, {"measurement": "Estimated Absorbed Dose of Organ, Average: Lungs", "setting": "[3]", "result": "1.03E-02", "unit": "mGy/MBq"}, {"measurement": "Estimated Absorbed Dose of Organ, Average: Muscle", "setting": "[3]", "result": "1.67E-02", "unit": "mGy/MBq"}, {"measurement": "Estimated Absorbed Dose of Organ, Average: Osteogenic Cells", "setting": "[3]", "result": "2.29E-02", "unit": "mGy/MBq"}, {"measurement": "Estimated Absorbed Dose of Organ, Average: Ovaries", "setting": "[3]", "result": "4.29E-02", "unit": "mGy/MBq"}, {"measurement": "Estimated Absorbed Dose of Organ, Average: Pancreas", "setting": "[3]", "result": "1.65E-02", "unit": "mGy/MBq"}, {"measurement": "Estimated Absorbed Dose of Organ, Average: Red Marrow", "setting": "[3]", "result": "1.64E-02", "unit": "mGy/MBq"}, {"measurement": "Estimated Absorbed Dose of Organ, Average: Skin", "setting": "[3]", "result": "1.14E-02", "unit": "mGy/MBq"}, {"measurement": "Estimated Absorbed Dose of Organ, Average: Small Intestine", "setting": "[3]", "result": "2.68E-02", "unit": "mGy/MBq"}, {"measurement": "Estimated Absorbed Dose of Organ, Average: Spleen", "setting": "[3]", "result": "1.55E-02", "unit": "mGy/MBq"}, {"measurement": "Estimated Absorbed Dose of Organ, Average: Stomach Wall", "setting": "[3]", "result": "1.66E-02", "unit": "mGy/MBq"}, {"measurement": "Estimated Absorbed Dose of Organ, Average: Thymus", "setting": "[3]", "result": "1.38E-02", "unit": "mGy/MBq"}, {"measurement": "Estimated Absorbed Dose of Organ, Average: Thyroid", "setting": "[3]", "result": "1.24E-02", "unit": "mGy/MBq"}, {"measurement": "Estimated Absorbed Dose of Organ, Average: Total Body", "setting": "[3]", "result": "1.72E-02", "unit": "mGy/MBq"}, {"measurement": "Estimated Absorbed Dose of Organ, Average: ULI Wall", "setting": "[3]", "result": "2.24E-02", "unit": "mGy/MBq"}, {"measurement": "Estimated Absorbed Dose of Organ, Average: Urinary Bladder Wall", "setting": "[3]", "result": "4.48E-01 ‡ mGy/MBq"}, {"measurement": "Estimated Absorbed Dose of Organ, Average: Uterus", "setting": "[3]", "result": "4.34E-02", "unit": "mGy/MBq"}, {"measurement": "Effective Dose", "setting": "[4]", "result": "1.15E-02", "unit": "mSv/MBq"}, {"measurement": "Estimated Absorbed Dose of Organ, Brain", "setting": "[4]", "result": "1.19E-02", "unit": "mGy/MBq"}, {"measurement": "Estimated Absorbed Dose of Organ, Breasts", "setting": "[4]", "result": "1.84E-02", "unit": "mGy/MBq"}, {"measurement": "Estimated Absorbed Dose of Organ, Gallbladder Wall", "setting": "[4]", "result": "8.62E-03", "unit": "mGy/MBq"}, {"measurement": "Estimated Absorbed Dose of Organ, Heart Wall", "setting": "[4]", "result": "1.28E-02", "unit": "mGy/MBq"}, {"measurement": "Estimated Absorbed Dose of Organ, Kidneys", "setting": "[4]", "result": "9.59E-02 ‡ mGy/MBq"}, {"measurement": "Estimated Absorbed Dose of Organ, LLI Wall", "setting": "[4]", "result": "1.11E-02", "unit": "mGy/MBq"}, {"measurement": "Estimated Absorbed Dose of Organ, Liver", "setting": "[4]", "result": "2.72E-02", "unit": "mGy/MBq"}, {"measurement": "Estimated Absorbed Dose of Organ, Lungs", "setting": "[4]", "result": "1.15E-02", "unit": "mGy/MBq"}, {"measurement": "Estimated Absorbed Dose of Organ, Muscle", "setting": "[4]", "result": "1.79E-02", "unit": "mGy/MBq"}, {"measurement": "Estimated Absorbed Dose of Organ, Osteogenic Cells", "setting": "[4]", "result": "1.02E-02", "unit": "mGy/MBq"}, {"measurement": "Estimated Absorbed Dose of Organ, Ovaries", "setting": "[4]", "result": "1.03E-02", "unit": "mGy/MBq"}, {"measurement": "Estimated Absorbed Dose of Organ, Pancreas", "setting": "[4]", "result": "1.95E-02", "unit": "mGy/MBq"}, {"measurement": "Estimated Absorbed Dose of Organ, Red Marrow", "setting": "[4]", "result": "1.23E-02", "unit": "mGy/MBq"}, {"measurement": "Estimated Absorbed Dose of Organ, Skin", "setting": "[4]", "result": "1.51E-02", "unit": "mGy/MBq"}, {"measurement": "Estimated Absorbed Dose of Organ, Small Intestine", "setting": "[4]", "result": "8.33E-02 § mGy/MBq"}, {"measurement": "Estimated Absorbed Dose of Organ, Spleen", "setting": "[4]", "result": "7.40E-03", "unit": "mGy/MBq"}, {"measurement": "Estimated Absorbed Dose of Organ, Stomach Wall", "setting": "[4]", "result": "1.38E-02", "unit": "mGy/MBq"}, {"measurement": "Estimated Absorbed Dose of Organ, Thymus", "setting": "[4]", "result": "1.10E-02", "unit": "mGy/MBq"}, {"measurement": "Estimated Absorbed Dose of Organ, Thyroid", "setting": "[4]", "result": "1.16E-02", "unit": "mGy/MBq"}, {"measurement": "Estimated Absorbed Dose of Organ, ULI Wall", "setting": "[4]", "result": "1.15E-02", "unit": "mGy/MBq"}, {"measurement": "Estimated Absorbed Dose of Organ, Urinary Bladder Wall", "setting": "[4]", "result": "8.48E-03", "unit": "mGy/MBq"}, {"measurement": "Estimated Absorbed Dose of Organ, Uterus", "setting": "[4]", "result": "1.93E-01 † mGy/MBq"}, {"measurement": "Estimated Absorbed Dose, Total Body", "setting": "[4]", "result": "2.12E-02", "unit": "mGy/MBq"}]}
